Assay results reported in patent US20260317309A1, “N-HETEROCYLIC GPCR RECEPTOR AGONISTS, PHARMACEUTICAL COMPOSITIONS COMPRISING THE SAME, AND METHODS FOR THEIR USE” (Carmot Therapeutics, Inc., priority 2022, published 2026).

Target: T1, human GLP-1 receptor (Homo sapiens, UniProt P43220)
T1 construct: expressed in transfected cells
Test: GLP-1R cAMP assay (cAMP accumulation in CHO cells stably overexpressing the human GLP-1 receptor, HitHunter kit)
Type: cell-based
Conditions: CHO cells stably overexpressing human GLP-1R, 30 min, 20-point dose response in triplicate
Method in brief: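 CHO cells stably expressing the human receptor (10,000/well) in HBSS with 10 mM HEPES and 625 μM IBMX, given compound as a 20-point dose response in triplicate for 30 min. cAMP was read by luminescent enzyme-complementation detection after overnight incubation, and EC50 was fitted from dose-response curves.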

T1 sequence (P43220 24-463): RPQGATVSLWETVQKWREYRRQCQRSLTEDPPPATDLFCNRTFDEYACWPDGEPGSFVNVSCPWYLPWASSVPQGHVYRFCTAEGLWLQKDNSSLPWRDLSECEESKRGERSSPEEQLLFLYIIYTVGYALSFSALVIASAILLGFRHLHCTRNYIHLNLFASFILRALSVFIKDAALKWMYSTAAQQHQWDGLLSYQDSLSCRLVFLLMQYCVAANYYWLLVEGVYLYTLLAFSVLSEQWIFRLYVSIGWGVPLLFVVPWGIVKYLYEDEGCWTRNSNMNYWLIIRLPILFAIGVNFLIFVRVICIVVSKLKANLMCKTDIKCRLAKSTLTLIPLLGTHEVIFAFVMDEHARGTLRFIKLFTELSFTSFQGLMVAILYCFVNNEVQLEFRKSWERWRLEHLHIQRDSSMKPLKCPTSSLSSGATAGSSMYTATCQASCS

C[C@H]1C[C@@H](Oc2ccnc(COc3ccc(F)cc3F)n2)CCN1Cc1nc2ccc(CO)cc2n1C[C@@H]1CCO1 [Compound 639, (2-(((2S,4S)-4-((2-((2,4-difluorophenoxy)methyl)pyrimidin-4-yl)oxy)-2-methylpiperidin-1-yl)methyl)-1-(((S)-oxetan-2-yl)methyl)-1H-benzo[d]imidazol-6-yl)methanol] was tested. Which EC50 did it give?
The EC50 was 0.01 to 0.1 µM.

With N#Cc1ccc(OCc2nccc(O[C@H]3CC[C@H](Cc4nc5ccc(C(=O)O)cc5n4C[C@@H]4CCO4)CC3)n2)c(F)c1 [Compound 640, 1-{[(2S)-oxetan-2-yl]methyl}-2-{[(1r,4r)-4-({2-[(4-cyano-2-fluorophenoxy)methyl]pyrimidin-4-yl}oxy)cyclohexyl]methyl}-1H-1,3-benzodiazole-6-carboxylic acid] as the molecule, how does the EC50 read?
Its EC50 is < 0.0001 µM.

For N#Cc1ccc(OCc2nccc(O[C@H]3CC[C@@H](Cc4nc5ccc(C(=O)O)cc5n4C[C@@H]4CCO4)CC3)n2)c(F)c1 [Compound 641, 1-{[(2S)-oxetan-2-yl]methyl}-2-{[(1s,4s)-4-({2-[(4-cyano-2-fluorophenoxy)methyl]pyrimidin-4-yl}oxy)cyclohcxyl]methyl}-1H-1,3-benzodiazole-6-carboxylic acid], which EC50 is on record?
Its EC50 is 0.1 to 0.5 µM.
